Source: paper PMC10023787, “Trio-pharmacophore DNA-encoded chemical library for simultaneous selection of fragments and linkers” (Nature Communications, 2023)
“Also recorded” adds a separate entry of the source. Where two headings read alike, the source gives them in different places. One block for each molecule: values may come before it.

Key:
MMP-2 = target: T1, MMP-2 (Homo sapiens, UniProt P08253); assay: Dynamic dual-pharmacophore DEL selection against MMP-2, NGS decoding; format: binding; conditions: for Enrichment Fold / Count: MMP2 3L (3' sub-library members); for Count: NGS sequence count after selection
T1 construct: purchased Sino Biological 10082-HNAH
T1 sequence (P08253 110-660): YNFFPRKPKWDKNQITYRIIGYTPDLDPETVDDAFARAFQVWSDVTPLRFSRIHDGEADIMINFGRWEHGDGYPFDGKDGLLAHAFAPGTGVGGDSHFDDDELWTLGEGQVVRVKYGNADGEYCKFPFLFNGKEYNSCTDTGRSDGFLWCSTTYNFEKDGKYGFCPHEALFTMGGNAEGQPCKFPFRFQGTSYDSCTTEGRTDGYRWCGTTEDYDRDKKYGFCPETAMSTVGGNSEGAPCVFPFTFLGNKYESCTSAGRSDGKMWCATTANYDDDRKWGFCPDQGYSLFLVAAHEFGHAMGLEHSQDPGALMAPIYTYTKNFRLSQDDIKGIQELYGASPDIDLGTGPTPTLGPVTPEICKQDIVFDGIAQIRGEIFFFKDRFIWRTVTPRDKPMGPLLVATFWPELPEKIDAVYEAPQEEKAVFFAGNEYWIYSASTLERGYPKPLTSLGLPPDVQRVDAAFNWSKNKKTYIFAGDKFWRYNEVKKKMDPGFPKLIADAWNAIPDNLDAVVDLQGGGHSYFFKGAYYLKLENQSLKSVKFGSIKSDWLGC
Description: Matrix metalloproteinases (MMPs) are zinc-dependent endopeptidases capable of degrading and remodeling extracellular matrix components[46],[47]. They are attractive therapeutic targets as high expression levels were detected in various diseases, such as inflammatory diseases, and at different stages of cancers, including metastasis, invasion, and angiogenesis[47]–[53]. As shown in Supplementary Fig. 3c, we performed selections against the two gelatinases (human MMP-2 and human MMP-9) to identify binding fragments for later design and synthesis of small molecule inhibitors. After selection, the three sub-libraries were decoded, and the enrichment was calculated by dividing the post-selection fraction (count/total counts) by the pre-selection fraction (Fig. 4a and Supplementary Fig. 13).
4 µg of MMP-2/MMP-9 was dissolved in 100 µl of selection buffer containing 25 mM Tris-base, 10 mM CaCl2, 150 mM NaCl, 0.05% Tween 20, pH 7.5. 10 µl of 4-Aminophenylmercuric acetate (APMA) (100 mM) solution was added to the protein solution and incubated at 37 °C for 1 h. After activation, the solution was added on top of 40 µl pre-washed Ni-NTA resin and incubated for 30 min on a rotary shaker. The supernatant was discarded, and the resin was washed three times with the selection buffer.
For each independent selection, three sub-libraries were mixed in the selection buffer with a final concentration of 40 nM of each sub-library in 100 µl. The mixture was heat denatured at 90 °C for 1 min and slowly cooled down to allow the formation of the trio-pharmacophore library. The dynamic dual-pharmacophore DEL was provided by DyNAbind GmbH (Merck, DYNA001).
The assembled library was incubated with the protein-bound solid support for 2 h at RT on a rotary shaker. In parallel, selection on bare solid support served as the negative control to exclude promiscuous binders on the resin. After panning, the supernatant was discarded, and the resin was washed three times with 1 ml selection buffer. Finally, 100 µl of 50 mM Tris buffer, pH 7.4 was added to resuspend the resin and the resin was incubated at 95 °C for 5 min to denature the protein, release, and collect the bound library members.
The eluted library members were subjected to sample preparation for NGS. NGS preparation was achieved by two-step PCR. First, the individual selection was indexed using primers containing unique sequences corresponding to each selection. The amplified product was purified from 2% agarose gel. Second, the purified DNA from all selections were pooled in equal amount and subjected to the 2nd PCR step to attach sequences compatible with the NGS flow cell and the sequencing primers. NGS was performed by Novogene UK with Novaseq 6000. Raw data files (fastq files) obtained were decoded using a custom python script and excel. The sequence reads corresponding to each sample was retrieved by searching for the correct index unique to each selection. Then, the code region was extracted from each sequence and assigned to the corresponding identity. The count of each code in each selection sample was obtained by looping through the total reads and counting the occurrence of each code. The enrichment fold of each compound was calculated by first, dividing the count by the total count to get the abundance, second, the abundance after the selection was divided by the abundance of pre-selection to reflect the distribution change of the compound. Next, the enrichment fold was plotted against the count for each member of the library to give the scatter plots as in Fig. 4.

MMP-9 = target: T2, MMP-9 (Homo sapiens, UniProt P14780); assay: MMP-9 inhibition assay (fluorogenic peptide substrate); format: biochemical; conditions: for inhibitory effect: in words
T2 construct: purchased Sino Biological 10327-HNAH
T2 sequence (P14780 107-707 limits assumed): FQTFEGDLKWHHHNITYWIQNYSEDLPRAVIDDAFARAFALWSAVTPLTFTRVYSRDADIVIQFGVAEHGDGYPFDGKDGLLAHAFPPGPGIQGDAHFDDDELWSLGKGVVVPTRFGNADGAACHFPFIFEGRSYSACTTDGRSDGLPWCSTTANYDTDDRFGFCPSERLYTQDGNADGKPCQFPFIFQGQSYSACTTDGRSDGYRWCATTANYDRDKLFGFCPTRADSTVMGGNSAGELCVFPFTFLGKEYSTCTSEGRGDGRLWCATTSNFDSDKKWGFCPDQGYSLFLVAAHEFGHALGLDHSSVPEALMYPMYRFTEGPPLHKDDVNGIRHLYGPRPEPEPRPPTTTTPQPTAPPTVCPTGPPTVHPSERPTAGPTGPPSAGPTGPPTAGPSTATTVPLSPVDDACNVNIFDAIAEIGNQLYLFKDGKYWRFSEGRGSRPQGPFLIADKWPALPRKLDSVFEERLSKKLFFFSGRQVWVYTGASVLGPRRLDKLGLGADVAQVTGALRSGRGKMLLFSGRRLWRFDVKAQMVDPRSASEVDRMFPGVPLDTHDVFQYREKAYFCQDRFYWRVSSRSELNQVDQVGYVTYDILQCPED
Method in brief: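 Hydrolysis of DNP-Pro-Leu-Gly-Met-Trp-Ser-Arg (25 μM final) was tracked kinetically at em 360 nm over 30 min. Enzymes, APMA-activated and at 10 nM (MMP-9) or 6.5 nM (MMP-2) final, sat 30 min at RT with inhibitor in pH 7.5 Tris buffer with CaCl2 and Brij 35 first. Logistic fitting of Vmax against concentration gave IC50, in triplicate.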

[1] = read-out: Mean (MMP-9, Supplementary fig 16)
[2] = read-out: Mean (MMP-9 dose-response, Supplementary fig 15)
[3] = read-out: Mean (dose-response, Supplementary fig 17)
[4] = read-out: Normalized activity (Mean)

Enrichment Fold (MMP-2): 11.3583 | Count (MMP-2): 12779 | MMP2 5L Enrichment Fold (MMP-2; MMP2 selection, 5L library (Supplementary fig 13)): 2.035 | MMP2 5L Count (MMP-2; MMP2 selection, 5L library, sequence count (Supplementary fig 13)): 2158 | remaining activity at 0.12207 µM (MMP-9; Figure 5b, fragment concentration 0.12207 µM, read-out: Normalized activity (Mean)): 95.1% | remaining activity at 0.488281 µM (MMP-9; Figure 5b, fragment concentration 0.488281 µM, read-out: Normalized activity (Mean)): 93.3% | remaining activity at 1.95312 µM (MMP-9; Figure 5b, fragment concentration 1.95312 µM, read-out: Normalized activity (Mean)): 97.2% | remaining activity at 7.8125 µM (MMP-9; Figure 5b, fragment concentration 7.8125 µM, read-out: Normalized activity (Mean)): 99.6% | remaining activity at 31.25 µM (MMP-9; Figure 5b, fragment concentration 31.25 µM, read-out: Normalized activity (Mean)): 92% | remaining activity at 125 µM (MMP-9; Figure 5b, fragment concentration 125 µM, read-out: Normalized activity (Mean)): 94.2% | remaining activity at 500 µM (MMP-9; Figure 5b, fragment concentration 500 µM, read-out: Normalized activity (Mean)): 83% | remaining activity at 0.12 µM (MMP-9; MMP-9, concentration 0.12 µM, read-out: Mean (MMP-9, Supplementary fig 16)): 95.1% | remaining activity at 0.49 µM (MMP-9; MMP-9, concentration 0.49 µM, read-out: Mean (MMP-9, Supplementary fig 16)): 93.3% | remaining activity at 1.95 µM (MMP-9; MMP-9, concentration 1.95 µM, read-out: Mean (MMP-9, Supplementary fig 16)): 97.2% | remaining activity at 7.81 µM (MMP-9; MMP-9, concentration 7.81 µM, read-out: Mean (MMP-9, Supplementary fig 16)): 99.6% | remaining activity at 31.25 µM (MMP-9; MMP-9, concentration 31.25 µM, read-out: Mean (MMP-9, Supplementary fig 16)): 92% | remaining activity at 125 µM (MMP-9; MMP-9, concentration 125.00 µM, read-out: Mean (MMP-9, Supplementary fig 16)): 94.2% | remaining activity at 500 µM (MMP-9; MMP-9, concentration 500.00 µM, read-out: Mean (MMP-9, Supplementary fig 16)): 83% | remaining activity at 0.12 µM (MMP-9; MMP-9, concentration 0.12 µM, read-out: Mean (MMP-9 dose-response, Supplementary fig 15)): 95.1% | remaining activity at 0.12 µM (MMP-9; MMP-9, concentration 0.12 µM, read-out: Mean (dose-response, Supplementary fig 17)): 82.6% | remaining activity at 0.49 µM (MMP-9; MMP-9, concentration 0.49 µM, read-out: Mean (MMP-9 dose-response, Supplementary fig 15)): 93.3% | remaining activity at 0.49 µM (MMP-9; MMP-9, concentration 0.49 µM, read-out: Mean (dose-response, Supplementary fig 17)): 80.6% | remaining activity at 1.95 µM (MMP-9; MMP-9, concentration 1.95 µM, read-out: Mean (MMP-9 dose-response, Supplementary fig 15)): 97.2% | remaining activity at 1.95 µM (MMP-9; MMP-9, concentration 1.95 µM, read-out: Mean (dose-response, Supplementary fig 17)): 99.3% | remaining activity at 7.81 µM (MMP-9; MMP-9, concentration 7.81 µM, read-out: Mean (MMP-9 dose-response, Supplementary fig 15)): 99.6% | remaining activity at 7.81 µM (MMP-9; MMP-9, concentration 7.81 µM, read-out: Mean (dose-response, Supplementary fig 17)): 88.5% | remaining activity at 31.25 µM (MMP-9; MMP-9, concentration 31.25 µM, read-out: Mean (MMP-9 dose-response, Supplementary fig 15)): 92% | remaining activity at 31.25 µM (MMP-9; MMP-9, concentration 31.25 µM, read-out: Mean (dose-response, Supplementary fig 17)): 96.1% | remaining activity at 125 µM (MMP-9; MMP-9, concentration 125.00 µM, read-out: Mean (MMP-9 dose-response, Supplementary fig 15)): 94.2% | remaining activity at 125 µM (MMP-9; MMP-9, concentration 125.00 µM, read-out: Mean (dose-response, Supplementary fig 17)): 87.7% | remaining activity at 500 µM (MMP-9; MMP-9, concentration 500.00 µM, read-out: Mean (MMP-9 dose-response, Supplementary fig 15)): 83% | remaining activity at 500 µM (MMP-9; MMP-9, concentration 500.00 µM, read-out: Mean (dose-response, Supplementary fig 17)): 84%
SMILES: Cn1c(O)nc2cc(C(=O)O)cnc21 [Compound 826]
inhibitory effect (MMP-9): No inhibitory effects could be measured; also recorded: did not exhibit meaningful activity

SMILES: O=C(O)c1cncc(O)c1 [Compound 828]
Enrichment Fold (MMP-2): 6.248 | Count (MMP-2): 14566 | inhibitory effect (MMP-9): high µM range | IC50 (MMP-9; mean ± SE, n.d: not detected, Fig. 5e prints no unit, µM, read-out: IC50): 271 ± 12.4 µM | remaining activity at 0.08 µM (MMP-9; [1]): 98.6% | remaining activity at 0.39 µM (MMP-9; [1]): 97.4% | remaining activity at 1.95 µM (MMP-9; [1]): 84.3% | remaining activity at 9.75 µM (MMP-9; [1]): 88.7% | remaining activity at 48.76 µM (MMP-9; [1]): 80.3% | remaining activity at 243.8 µM (MMP-9; [1]): 54.4% | remaining activity at 1219 µM (MMP-9; [1]): 0% | remaining activity at 0.08 µM (MMP-9; [2]): 98.6% | remaining activity at 0.39 µM (MMP-9; [2]): 97.4% | remaining activity at 1.95 µM (MMP-9; [2]): 84.3% | remaining activity at 9.75 µM (MMP-9; [2]): 88.7% | remaining activity at 48.76 µM (MMP-9; [2]): 80.3% | remaining activity at 243.8 µM (MMP-9; [2]): 54.4% | remaining activity at 1219 µM (MMP-9; [2]): 0% | remaining activity at 0.08 µM (MMP-9; [3]): 98.6% | remaining activity at 0.39 µM (MMP-9; [3]): 97.4% | remaining activity at 1.95 µM (MMP-9; [3]): 84.3% | remaining activity at 9.75 µM (MMP-9; [3]): 88.7% | remaining activity at 48.76 µM (MMP-9; [3]): 80.3% | remaining activity at 243.8 µM (MMP-9; [3]): 54.4% | remaining activity at 1219 µM (MMP-9; [3]): 0% | remaining activity at 0.078016 µM (MMP-9; [4]): 98.6% | remaining activity at 0.39008 µM (MMP-9; [4]): 97.4% | remaining activity at 1.9504 µM (MMP-9; [4]): 84.3% | remaining activity at 9.752 µM (MMP-9; [4]): 88.7% | remaining activity at 48.76 µM (MMP-9; [4]): 80.3% | remaining activity at 243.8 µM (MMP-9; [4]): 54.4% | remaining activity at 1219 µM (MMP-9; [4]): 0%
